Test results from patent US20080194585A1, “Fungicidal Pyrazine Derivatives” (priority 2005, published 2008).
Marks after values point to notes of the source that are not given here.

Legend:
Details in all cases: 100 = 100% disease control, 0 = no control
Rhizoctonia oryzae = assay: Test G: turf brown patch, preventive spray on creeping bent grass seedlings
Procedure: (the causal agent of turf brown patch) and incubated in a saturated atmosphere at 27° C. for 24 h, and then moved to a growth chamber at 27° C. for 5 days, after which disease ratings were made.

Botrytis cinerea = assay: Test E: tomato botrytis, preventive spray on tomato seedlings
Phytophthora infestans = assay: whole plant or invertebrate; format: in vivo
Septoria nodorum = assay: Test H: wheat glum blotch, preventive spray on wheat seedlings
Procedure: (the causal agent of wheat glum blotch) and incubated in a saturated atmosphere at 20° C. for 48 h, and then moved to a growth chamber at 22° C. for 5 days, after which disease ratings were made.

Pythium aphanidermatum = assay: Test A: bluegrass pythium blight, preventive spray on bluegrass seedlings
[1] = test system: Colletotrichum orbiculare; assay: Test B: cucumber Colletotrichum anthracnose, preventive spray on cucumber seedlings
fusarium graminearium = assay: Test I: wheat head scab, preventive spray on wheat seedlings
Procedure: (the causal agent of wheat head scab) and incubated in a saturated atmosphere at 20° C. for 72 h, and then moved to a growth chamber at 22° C. for 5 days, after which disease ratings were made.

Plasmopara viticola = assay: Test D: grape downy mildew, spray after inoculation of grape seedlings; format: in vivo
Text: Upon removal, disease ratings were made. […] A dash (-) indicates no test results.

[2] = test system: Erysiphe graminis f. sp. tritici; assay: Test L: wheat powdery mildew, preventive spray on wheat seedlings
Septoria tritici = assay: Test J: wheat leaf blotch, preventive spray on wheat seedlings; format: in vivo
Text: A dash (-) indicates no test results.

[3] = test system: Puccinia recondita f. sp. tritici; assay: Test K: wheat leaf rust, preventive spray on wheat seedlings

Row | SMILES | Test G disease control rating (Rhizoctonia oryzae; 40 ppm (marked *)) | Test E disease control rating (Botrytis cinerea; 40 ppm (marked *)) | Test H disease control rating (Septoria nodorum; 40 ppm (marked *)) | Test B disease control rating ([1]; 40 ppm (marked *)) | Test L disease control rating ([2]; 40 ppm (marked *)) | Test J disease control rating (Septoria tritici; 40 ppm (marked *)) | Test K disease control rating ([3]; 40 ppm (marked *)) | Test F disease control rating (Phytophthora infestans; 200 ppm) [%] | Test A disease control rating (Pythium aphanidermatum; 200 ppm) [%] | Test I disease control rating (fusarium graminearium; 200 ppm) [%] | Test D disease control rating (Plasmopara viticola; 200 ppm) [%] | further results
1 | Cc1ccccc1-n1c(-c2c(F)cccc2F)c(Cl)nc(-n2cccn2)c1=O [compound 328] | 87* % | 99* % | 100* % | 0* % | 88* % | 100* % | 98* % | – | – | – | – | Test F disease control rating (Phytophthora infestans; 40 ppm (marked *)): 0* %; Test A disease control rating (Pythium aphanidermatum; 40 ppm (marked *)): 0* %; Test I disease control rating (fusarium graminearium; 40 ppm (marked *)): 31* %; Test D disease control rating (Plasmopara viticola; 40 ppm (marked *)): 0* %
2 | Cc1ccn(-c2nc(Cl)c(-c3c(F)cccc3F)n(-c3ccccc3C)c2=O)n1 [compound 329] | 26* % | 99* % | 100* % | 31* % | 76* % | 100* % | 96* % | – | – | – | – | Test F disease control rating (Phytophthora infestans; 40 ppm (marked *)): 0* %; Test A disease control rating (Pythium aphanidermatum; 40 ppm (marked *)): 83* %; Test I disease control rating (fusarium graminearium; 40 ppm (marked *)): 0* %; Test D disease control rating (Plasmopara viticola; 40 ppm (marked *)): 0* %
3 | O=c1c(-n2cccn2)nc(Cl)c(-c2c(F)cc(F)cc2F)n1Cc1cccc(Br)c1 [compound 344] | 16* % | 92* % | 99* % | 0* % | 0* % | 100* % | 99* % | 0 | 0 | 93 | 0 | –
4 | O=c1c(-n2cccn2)nc(Cl)c(-c2c(F)cc(F)cc2F)n1Cc1ccccc1Br [compound 345] | 31* % | 98* % | 99* % | 88* % | 88* % | 100* % | 100* % | 0 | 0 | 91 | 0 | –
5 | O=c1c(-n2cccn2)nc(Cl)c(-c2c(F)cc(F)cc2F)n1Cc1ccc(C(F)(F)F)cc1 [compound 346] | 0* % | 0* % | 0* % | 0* % | 0* % | 13* % | 74* % | 0 | 0 | 0 | 0 | –
6 | O=c1c(-n2cccn2)nc(Cl)c(-c2c(F)cc(F)cc2F)n1Cc1cccc(C(F)(F)F)c1 [compound 347] | 0* % | 0* % | 0* % | 0* % | 25* % | 83* % | 93* % | 0 | 0 | 0 | 0 | –
7 | O=c1c(-n2cccn2)nc(Cl)c(-c2c(F)cc(F)cc2F)n1Cc1ccccc1C(F)(F)F [compound 348] | 16* % | 90* % | 64* % | 0* % | 44* % | 99* % | 97* % | 0 | 0 | 0 | 0 | –
8 | CCC(C)Cn1c(-c2c(F)cccc2F)c(Cl)nc(C(=O)NCCO)c1=O (stereo not shown) [compound 349] | 0* % | 0* % | 0* % | 0* % | 0* % | 25* % | 96* % | 0 | 0 | 0 | 0 | –
9 | CC(C)Cn1c(-c2c(F)cccc2F)c(Cl)nc(-c2cnccn2)c1=O [compound 350] | – | – | – | – | – | – | – | 0 | 80 | 80 | 0 | Test G disease control rating (Rhizoctonia oryzae; 200 ppm): 99%; Test E disease control rating (Botrytis cinerea; 200 ppm): 98%; Test H disease control rating (Septoria nodorum; 200 ppm): 98%; Test B disease control rating ([1]; 200 ppm): 0%; Test L disease control rating ([2]; 200 ppm): 86%; Test J disease control rating (Septoria tritici; 200 ppm): 85%; Test K disease control rating ([3]; 200 ppm): 99%
10 | O=c1c(-n2cccn2)nc(Cl)c(-c2c(F)cc(F)cc2F)n1-c1cccc(Br)c1 [compound 351] | 0* % | 99* % | 99* % | 99* % | 100* % | 100* % | 100* % | 0 | 0 | 78 | 0 | –
11 | O=c1c(-n2cccn2)nc(Cl)c(-c2c(F)cc(F)cc2F)n1-c1ccc(Br)cc1 [compound 352] | 31* % | 99* % | 97* % | 99* % | 81* % | 100* % | 99* % | 0 | 0 | 63 | 0 | –
12 | O=c1c(-n2cccn2)nc(Cl)c(-c2c(F)cc(F)cc2F)n1-c1cccc(C(F)(F)F)c1 [compound 353] | 0* % | 98* % | 98* % | 16* % | 79* % | 100* % | 91* % | 0 | 0 | 0 | 0 | –
13 | O=c1c(-n2cccn2)nc(Cl)c(-c2c(F)cc(F)cc2F)n1-c1ccc(C(F)(F)F)cc1 [compound 354] | 47* % | 95* % | 91* % | 9* % | 48* % | 100* % | 97* % | 0 | 0 | 0 | 0 | –
14 | Cc1nc(-c2ccccn2)c(=O)n(-c2ccccc2)c1-c1c(F)cccc1F [compound 359] | 0* % | 0* % | 0* % | 0* % | 0* % | 85* % | 0* % | – | – | – | – | Test F disease control rating (Phytophthora infestans; 40 ppm (marked *)): 0* %; Test A disease control rating (Pythium aphanidermatum; 40 ppm (marked *)): 81* %; Test I disease control rating (fusarium graminearium; 40 ppm (marked *)): 65* %; Test D disease control rating (Plasmopara viticola; 40 ppm (marked *)): 8* %
15 | O=c1c(-n2cccn2)nc(Cl)c(-c2c(F)cccc2F)n1-c1ccccc1Br [compound 360] | 65* % | 99* % | 100* % | 0* % | 99* % | 100* % | 100* % | 0 | 0 | 86 | 0 | –
16 | O=c1c(-n2cccn2)nc(Cl)c(-c2c(F)cccc2F)n1C1CC1 [compound 361] | 31* % | 92* % | 98* % | 0* % | 0* % | 3* % | 83* % | 0 | 0 | 0 | 0 | –
17 | O=c1c(-n2cccn2)nc(Cl)c(-c2c(F)cccc2F)n1C1CC1c1ccccc1 (stereo not shown) [compound 362] | 0* % | 0* % | 0* % | 0* % | 0* % | 0* % | 0* % | 0 | 0 | 0 | 0 | –
